One assay relates to responder T cells. In words: Mixed lymphocyte reaction (MLR), T cell proliferation. The note with it: [3H]thymidine incorporation after 48 h, read-out: IC50, inhibition of MLR-mediated T-cell proliferation. It counts as cell-based. The procedure:
For MLR cultures 4×10^5 responder T cells are incubated in duplicates with 2×10^5 mitomycin C-treated allogeneic stimulator T cells in a total volume of 200 μl RPMI 1640 medium supplemented with 10% FCS, 2 mM L-glutamine, 100 U/ml penicillin and 100 μg/ml streptomycin (Gibco Life Technologies) in 96 well tissue culture plates (655180, flat bottom, Greiner). Cells are maintained at 37° C. in a humidified atmosphere of 5% CO2. After 48 h of growth, cells are pulsed with 1 μCi [^3H]thymidine and incorporation of [^3H]thymidine is measured with a Topcount radioactive counter (Packard). To investigate the effect of a test compound on MLR-mediated T cell proliferation six three-fold dilution steps in duplicates per test compound are performed (final DMSO concentration 0.1%). Low control values are the proliferation of responder cells alone; high controls are from mixed lymphocyte cells without any test samples. Low controls are subtracted from all values. The inhibition obtained in the presence of a test compound is calculated as percent Inhibition of the high control. The concentration of test compounds resulting in 50% inhibition (IC50) is determined from the dose-response curves. The examples 91, 128, 133 and 137 inhibit MLR-mediated T-cell proliferation in this assay with an IC50<1 μM.
(Uptake of a labelled nucleoside into DNA is a usual measure of proliferation.)

For another assay, the target named is T1, Lck (Homo sapiens, UniProt P06239).
T1 construct: purchased Upstate (Dundee, UK)
T1 sequence (P06239 whole entry): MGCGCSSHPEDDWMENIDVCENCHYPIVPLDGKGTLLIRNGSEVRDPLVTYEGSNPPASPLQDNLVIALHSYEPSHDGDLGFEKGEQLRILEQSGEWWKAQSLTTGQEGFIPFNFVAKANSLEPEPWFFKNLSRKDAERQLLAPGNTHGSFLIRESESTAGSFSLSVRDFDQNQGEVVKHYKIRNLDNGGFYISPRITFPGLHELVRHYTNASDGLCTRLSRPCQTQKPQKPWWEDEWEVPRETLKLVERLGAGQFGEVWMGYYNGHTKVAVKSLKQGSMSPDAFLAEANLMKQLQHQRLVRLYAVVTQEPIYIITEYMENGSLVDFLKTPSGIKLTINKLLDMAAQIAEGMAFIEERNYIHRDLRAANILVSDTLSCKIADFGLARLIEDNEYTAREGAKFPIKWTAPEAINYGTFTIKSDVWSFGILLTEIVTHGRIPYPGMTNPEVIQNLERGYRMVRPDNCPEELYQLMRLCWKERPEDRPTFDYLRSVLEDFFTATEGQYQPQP
In words: Lck (p56Lck) assay (SPA). The format is biochemical. The following applies: human recombinant Lck, read-out: IC50, inhibition of Lck. The procedure:
The compounds of formula 1 are tested for their activity on different protein kinases and PKC isoforms using a scintillation proximity assay (SPA, Amersham International plc). ^33P-labeled peptides are captured onto streptavidin coated yttrium silicate SPA beads. β-particles, emitted from the captured ^33P-labeled substrate in close proximity to the bead are able to excite the scintillant, resulting in the generation of quantifiable light. The assay is performed in a 96-well polystyrene microtiterplate (1450-514, Isoplates, Wallac, Turku, Finland). The reaction mixture (50 μl) contains 10 μl of the test compound together with 10 μl of the relevant kinase, diluted in the relevant dilution buffer, 5 μl of 10 μM phorbol myristate acetate (PMA) in H2O, 5 μl of 1.6 mM phosphatidylserine (Sigma-Aldrich Chemie GmbH, Stein-heim, Germany) in 20 mM Tris/HCL buffer pH 7.4, 5 μl of 0.3% BSA in H2O, 5 μl of 30 μM relevant substrate and 10 μl of 5 μM ATP and 0.1 μCi of ^33P-ATP (Amersham, Freiburg, Germany) in 200 mM Tris/HCL pH 7.5 and 200 mM MgCl2. […] Thereafter the MTP is counted in a Microbeta Jet (Wallac). […]
Human recombinant Lck was obtained from Upstate (Dundee, UK) and is used in a scintillation proximity assay described in Section A.1. […] Thereafter the MTP is counted in a Microbeta Jet (Wallac). […] IC50 values are calculated from the graph by sigmoidal curve fitting. […]

Another assay concerns the target T2, PKCβ1 (Homo sapiens, UniProt P05771).
T2 construct: purchased Panvera
In words: Protein Kinase Cβ1 assay (SPA). It counts as biochemical. The note with it: human recombinant PKCβ1, SPA, biotinylated PKCα pseudosubstrate, 0.5 mM CaCl2; read-out: IC50, inhibition of PKC β1. Here is the method:
(§1) The compounds of formula 1 are tested for their activity on different protein kinases and PKC isoforms using a scintillation proximity assay (SPA, Amersham International plc). ^33P-labeled peptides are captured onto streptavidin coated yttrium silicate SPA beads. β-particles, emitted from the captured ^33P-labeled substrate in close proximity to the bead are able to excite the scintillant, resulting in the generation of quantifiable light. The assay is performed in a 96-well polystyrene microtiterplate (1450-514, Isoplates, Wallac, Turku, Finland). The reaction mixture (50 μl) contains 10 μl of the test compound together with 10 μl of the relevant kinase, diluted in the relevant dilution buffer, 5 μl of 10 μM phorbol myristate acetate (PMA) in H2O, 5 μl of 1.6 mM phosphatidylserine (Sigma-Aldrich Chemie GmbH, Stein-heim, Germany) in 20 mM Tris/HCL buffer pH 7.4, 5 μl of 0.3% BSA in H2O, 5 μl of 30 μM relevant substrate and 10 μl of 5 μM ATP and 0.1 μCi of ^33P-ATP (Amersham, Freiburg, Germany) in 200 mM Tris/HCL pH 7.5 and 200 mM MgCl2. Incubation is performed for 40 min at room temperature (RT) without shaking. Reaction is stopped by adding 150 μl of cold stop solution containing 10 mM ATP, 5 mM EGTA pH 7.5, 0.1% Triton X-100 and 0.2 mg streptavidin coated yttrium silicate SPA beads (Amersham, RPNQ 0012). The sealed plate is incubated for 60 min at RT. Thereafter the MTP is counted in a Microbeta Jet (Wallac). IC50 measurement is performed on a routine basis by incubation a serial dilution of inhibitor at concentrations ranging between 0.01 and 100 μM according to the method described above. Background values are the signals of the reaction mixture without addition of the relevant kinase and are subtracted from all values. 100% values are the signals of the reaction mixture without addition of inhibitors.
Dependent on the efficacy of the inhibitors In the various test systems, corresponding IC50 values are calculated from concentration-inhibition curves by nonlinear regression analysis using the program GraphPad Prism (GraphPad Software Inc., San Diego, Calif.).
Human recombinant PKCβ1 was obtained from Panvera and is used under the assay conditions as described above (Section A.1). The enzyme is diluted in PKC dilution buffer containing 1 mM Hepes pH 7.4, 0.5 mM DTT and 0.001% Triton X-100. The assay additionally contains 0.5 mM CaCl2. The kinase reaction is performed with the biotinylated PKCα pseudosubstrate solved in H2O. The examples 29, 45, 52, 128 and 139 inhibit PKC β1 in this assay with an IC50 between 2 and 40 μM.

Another assay deals with T3, Rsk1 (Homo sapiens, UniProt Q15418).
T3 construct: purchased Upstate ltd, Dundee, UK (external KinaseProfiler service)
T3 sequence (Q15418 whole entry): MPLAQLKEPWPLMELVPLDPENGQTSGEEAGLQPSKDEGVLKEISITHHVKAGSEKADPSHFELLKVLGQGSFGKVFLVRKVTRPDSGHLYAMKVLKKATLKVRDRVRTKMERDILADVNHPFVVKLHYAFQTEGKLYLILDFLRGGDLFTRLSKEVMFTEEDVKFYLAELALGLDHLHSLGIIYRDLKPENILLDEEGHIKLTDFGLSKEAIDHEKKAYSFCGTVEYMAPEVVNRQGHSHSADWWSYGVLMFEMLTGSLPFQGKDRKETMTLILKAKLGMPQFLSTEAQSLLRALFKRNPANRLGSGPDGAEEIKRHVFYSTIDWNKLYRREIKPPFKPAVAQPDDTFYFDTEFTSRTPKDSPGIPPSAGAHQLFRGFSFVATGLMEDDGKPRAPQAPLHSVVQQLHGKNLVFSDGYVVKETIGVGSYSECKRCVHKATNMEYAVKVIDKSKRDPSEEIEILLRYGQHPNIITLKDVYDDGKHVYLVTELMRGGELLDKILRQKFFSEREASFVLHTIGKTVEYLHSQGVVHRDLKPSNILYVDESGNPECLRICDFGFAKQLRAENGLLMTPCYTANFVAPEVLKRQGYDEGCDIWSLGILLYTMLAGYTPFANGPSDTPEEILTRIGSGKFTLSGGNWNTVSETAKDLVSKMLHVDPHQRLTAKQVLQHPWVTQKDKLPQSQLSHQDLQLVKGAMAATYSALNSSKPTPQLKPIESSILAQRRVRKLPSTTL
In words: Rsk1 KinaseProfiler assay (Upstate). The format is biochemical. The following applies: human recombinant Rsk, externally tested (IC50Profiler, Upstate), 10 μM ATP; read-out: IC50, inhibition of Rsk1. The procedure:
To investigate the effect of a test compound on p90 ribosomal S6 kinase (Rsk) family, the compounds are externally tested in KinaseProfiler assay (Upstate ltd, Dundee, UK) described in product guide brochure. In brief, in a final reaction volume of 25 μl, 5-10 mU of human recombinant Rsk are incubated with 8 mM MOPS pH 7.0, 0.2 mM EDTA, 30 μM KKKNRTLSVA, 10 mM MgAcetate and 10 μM [γ-33P-ATP]. The reaction is initiated by addition of the MgATP mix. After incubation for 40 minutes at RT, the reaction is stopped by the addition of 5 μl of a 3% phosphoric acid solution. 10 μl of the reaction is then spotted onto P30 filtermat and washed three times for 5 minutes in 75 mM phosphoric acid and once in methanol prior to drying and scintillation counting. The IC50 value is estimated by preparing a 10 point curve using a ½ log dilution series (IC50Profiler, Upstate). The examples 129, 431 and 173 inhibit Rsk1 in this assay with an IC50<1 μM.

The next assay addresses T4, PKCι (Homo sapiens, UniProt P41743).
T4 construct: made in house; host or cells: Sf21 insect cells
T4 sequence (P41743 1-596): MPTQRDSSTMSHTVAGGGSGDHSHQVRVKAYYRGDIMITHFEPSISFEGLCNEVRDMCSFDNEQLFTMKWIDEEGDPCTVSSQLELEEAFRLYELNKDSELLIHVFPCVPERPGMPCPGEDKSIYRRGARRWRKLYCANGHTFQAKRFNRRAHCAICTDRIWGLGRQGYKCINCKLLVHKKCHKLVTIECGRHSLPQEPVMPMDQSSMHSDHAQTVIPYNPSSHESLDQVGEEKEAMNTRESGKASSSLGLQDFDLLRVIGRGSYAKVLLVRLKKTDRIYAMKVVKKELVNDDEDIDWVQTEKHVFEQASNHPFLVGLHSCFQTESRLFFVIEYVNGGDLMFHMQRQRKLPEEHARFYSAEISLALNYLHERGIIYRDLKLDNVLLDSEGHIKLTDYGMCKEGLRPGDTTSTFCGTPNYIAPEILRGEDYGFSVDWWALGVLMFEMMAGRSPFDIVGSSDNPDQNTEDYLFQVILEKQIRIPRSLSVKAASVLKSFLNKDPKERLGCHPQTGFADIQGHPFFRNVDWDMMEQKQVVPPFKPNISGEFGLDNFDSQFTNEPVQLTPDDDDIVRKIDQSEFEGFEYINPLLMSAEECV
In words: Protein Kinase C ι assay (SPA). The following applies: human recombinant PKCι from Sf21 insect cells, absence of PMA and phosphatidylserine, read-out: IC50, inhibition of PKC ι. It counts as biochemical. The procedure:
as §1
Dependent on the efficacy of the inhibitors In the various test systems, corresponding IC50 values are calculated from concentration-inhibition curves by nonlinear regression analysis using the program GraphPad Prism (GraphPad Software Inc., San Diego, Calif.). […]

Where a name gives a salt, the structure may show the parent alone.

These results are taken from US20080242681A1, “N-4-(6-(Hetero)Aryl-Pyrimidin-4-Ylaminophenyl)-Benzenesulfonamides as Kinase Inhibitors” (Altana Pharma AG, priority 2004, published 2008).

T2 sequence (P05771 whole entry): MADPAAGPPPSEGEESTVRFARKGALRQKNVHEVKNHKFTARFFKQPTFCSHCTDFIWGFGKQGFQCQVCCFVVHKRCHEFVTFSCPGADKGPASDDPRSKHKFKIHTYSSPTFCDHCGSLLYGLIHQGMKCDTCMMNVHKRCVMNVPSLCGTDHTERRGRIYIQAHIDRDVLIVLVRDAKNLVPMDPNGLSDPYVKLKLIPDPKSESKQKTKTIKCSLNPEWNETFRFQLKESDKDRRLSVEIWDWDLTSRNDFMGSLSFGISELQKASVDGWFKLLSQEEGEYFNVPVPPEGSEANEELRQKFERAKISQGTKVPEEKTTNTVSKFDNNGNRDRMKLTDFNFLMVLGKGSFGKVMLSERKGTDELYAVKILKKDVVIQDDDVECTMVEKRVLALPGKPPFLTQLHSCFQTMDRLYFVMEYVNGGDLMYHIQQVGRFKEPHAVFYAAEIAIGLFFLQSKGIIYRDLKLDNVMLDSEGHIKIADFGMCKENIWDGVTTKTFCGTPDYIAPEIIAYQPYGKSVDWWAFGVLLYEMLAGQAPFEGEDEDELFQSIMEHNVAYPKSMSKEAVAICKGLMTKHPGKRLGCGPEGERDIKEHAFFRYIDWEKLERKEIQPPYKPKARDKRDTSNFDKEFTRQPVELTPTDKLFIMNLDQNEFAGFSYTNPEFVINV

As to `CN(C)CCCn1ccc2cc(-c3cc(Nc4ccc(NS(=O)(=O)c5c(F)cccc5F)cc4)ncn3)ccc21` [Example 128, N-(4-{6-[1-(3-Dimethylamino-propyl)-1H-indol-5-yl]-pyrimidin-4-ylamino}-phenyl)-2,6-difluoro-benzenesulfonamide], the IC50 in the assay with responder T cells was < 1000 nM; on Lck, < 3 µM; at PKCβ1 it was 2 to 40 µM.

Consider `CN(C)CCCn1ccc2cc(-c3cc(Nc4ccc(NS(=O)(=O)c5ccccc5F)cc4)ncn3)ccc21` [Example 129, N-(4-{6-[1-(3-Dimethylamino-propyl)-1H-indol-5-yl]-pyrimidin-4-ylamino}-phenyl)-2-fluorobenzenesulfonamide], for which the IC50 on Rsk1 is < 1000 nM.

Take `COc1ccc(S(=O)(=O)Nc2ccc(Nc3cc(-c4ccc5c(ccn5CCCN(C)C)c4)ncn3)cc2)cc1` [Example 131, N-(4-[6-[1-(3-Dimethylamino-propyl)-1H-indol-5-yl]pyrimidin-4-ylamino]phenyl)-4-methoxy-benzenesulfonamide]: at Lck, the IC50 was < 3 µM.

On to `CCN(CC)CCCn1cc(-c2cc(Nc3ccc(NS(=O)(=O)c4c(F)cccc4F)cc3)ncn2)c2ccccc21` [Example 173, N-(4-{6-[1-(3-Diethylamino-propyl)-1H-indol-3-yl]-pyrimidin-4-ylamino}-phenyl)-2,6-difluoro-benzenesulfonamide formic acid salt], for which the results for the IC50 on Rsk1 and at PKCι were < 1000 nM and 7 to 34 µM, respectively.
